Test results from PubChem BioAssay (NCI).
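Dose response: 5 concentrations. Exposure: 48 h. Format: 96-well plates. Endpoint: linear interpolation; highest concentration if not reached. Abbreviation: GI50, concentration required for 50% inhibition of growth. Definition used: TGI = concentration required for complete inhibition of growth.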

Experiments:
Assay in all cases: DTP human tumour cell line panel, 48 h
786-0 renal = test system: 786-0 renal
A498 renal = test system: A498 renal
A549 NSCLC = test system: A549 NSCLC
ACHN renal = test system: ACHN renal
BT-549 breast = test system: BT-549 breast
CAKI-1 renal = test system: CAKI-1 renal
CCRF-CEM leukemia = test system: CCRF-CEM leukemia
COLO 205 colon = test system: COLO 205 colon
DU-145 prostate = test system: DU-145 prostate
EKVX NSCLC = test system: EKVX NSCLC
HCC-2998 colon = test system: HCC-2998 colon
HCT-116 colon = test system: HCT-116 colon
HCT-15 colon = test system: HCT-15 colon
HL-60(TB) leukemia = test system: HL-60(TB) leukemia
HOP-62 NSCLC = test system: HOP-62 NSCLC
HOP-92 NSCLC = test system: HOP-92 NSCLC
HS 578T breast = test system: HS 578T breast
HT29 colon = test system: HT29 colon
IGROV1 ovarian = test system: IGROV1 ovarian
K-562 leukemia = test system: K-562 leukemia
KM12 colon = test system: KM12 colon
LOX IMVI melanoma = test system: LOX IMVI melanoma
M14 melanoma = test system: M14 melanoma
MCF7 breast = test system: MCF7 breast
MDA-MB-231 breast = test system: MDA-MB-231 breast
MDA-MB-435 = test system: MDA-MB-435
MOLT-4 leukemia = test system: MOLT-4 leukemia
NCI-H226 lung = test system: NCI-H226 lung
NCI-H23 lung = test system: NCI-H23 lung
NCI-H460 lung = test system: NCI-H460 lung
NCI-H522 lung = test system: NCI-H522 lung
NCI/ADR-RES ovarian = test system: NCI/ADR-RES ovarian
OVCAR-3 ovarian = test system: OVCAR-3 ovarian
OVCAR-4 ovarian = test system: OVCAR-4 ovarian
OVCAR-5 ovarian = test system: OVCAR-5 ovarian
OVCAR-8 ovarian = test system: OVCAR-8 ovarian
PC-3 prostate = test system: PC-3 prostate
RPMI-8226 leukemia = test system: RPMI-8226 leukemia
RXF 393 renal = test system: RXF 393 renal
SF-268 CNS = test system: SF-268 CNS
SF-295 CNS = test system: SF-295 CNS
SF-539 CNS = test system: SF-539 CNS
SK-MEL-2 melanoma = test system: SK-MEL-2 melanoma
SK-MEL-28 melanoma = test system: SK-MEL-28 melanoma
SK-MEL-5 melanoma = test system: SK-MEL-5 melanoma
SK-OV-3 ovarian = test system: SK-OV-3 ovarian
SN12C renal = test system: SN12C renal
SNB-19 CNS = test system: SNB-19 CNS
SNB-75 CNS = test system: SNB-75 CNS
SR leukemia = test system: SR leukemia
SW-620 colon = test system: SW-620 colon
T-47D breast = test system: T-47D breast
TK-10 renal = test system: TK-10 renal
U251 CNS = test system: U251 CNS
UACC-257 melanoma = test system: UACC-257 melanoma
UACC-62 melanoma = test system: UACC-62 melanoma
UO-31 renal = test system: UO-31 renal

COc1ccc(/C=N/Nc2nc(N)nc(N3CCCC3)c2C#N)cc1
GI50 (786-0 renal): 16.2 µM | TGI (786-0 renal): 31.2 µM | GI50 (A498 renal): 12.9 µM | TGI (A498 renal): 28.1 µM | GI50 (A549 NSCLC): 13.4 µM | TGI (A549 NSCLC): 50.8 µM | GI50 (ACHN renal): 17.4 µM | TGI (ACHN renal): 34.5 µM | GI50 (BT-549 breast): 19.1 µM | TGI (BT-549 breast): 46.3 µM | GI50 (CAKI-1 renal): 20.9 µM | TGI (CAKI-1 renal): 40.3 µM | GI50 (CCRF-CEM leukemia): 17.2 µM | TGI (CCRF-CEM leukemia): 49.2 µM | GI50 (COLO 205 colon): 37.1 µM | TGI (COLO 205 colon): > 100 µM | GI50 (DU-145 prostate): 11.8 µM | TGI (DU-145 prostate): 32 µM | GI50 (EKVX NSCLC): 25.9 µM | TGI (EKVX NSCLC): 60.3 µM | GI50 (HCC-2998 colon): 8.59 µM | TGI (HCC-2998 colon): 26.1 µM | GI50 (HCT-116 colon): 5.89 µM | TGI (HCT-116 colon): 22.5 µM | GI50 (HCT-15 colon): 17.2 µM | TGI (HCT-15 colon): 47.2 µM | GI50 (HL-60(TB) leukemia): 28.2 µM | TGI (HL-60(TB) leukemia): 86.6 µM | GI50 (HOP-62 NSCLC): 20.2 µM | TGI (HOP-62 NSCLC): 40.9 µM | GI50 (HOP-92 NSCLC): 17.8 µM | TGI (HOP-92 NSCLC): 36.4 µM | GI50 (HS 578T breast): 13 µM | TGI (HS 578T breast): 34 µM | GI50 (HT29 colon): 34.7 µM | TGI (HT29 colon): > 100 µM | GI50 (IGROV1 ovarian): 21 µM | TGI (IGROV1 ovarian): 44.4 µM | GI50 (K-562 leukemia): 13 µM | TGI (K-562 leukemia): 28.7 µM | GI50 (KM12 colon): 24.8 µM | TGI (KM12 colon): 70.8 µM | GI50 (LOX IMVI melanoma): 7.39 µM | TGI (LOX IMVI melanoma): > 100 µM | GI50 (M14 melanoma): 17 µM | TGI (M14 melanoma): 36.5 µM | GI50 (MCF7 breast): 15.3 µM | TGI (MCF7 breast): 47.8 µM | GI50 (MDA-MB-231 breast): 12.2 µM | TGI (MDA-MB-231 breast): 32.9 µM | GI50 (MDA-MB-435): 24.1 µM | TGI (MDA-MB-435): 64.6 µM | GI50 (MOLT-4 leukemia): 17.8 µM | TGI (MOLT-4 leukemia): 58.9 µM | GI50 (NCI-H226 lung): 12.4 µM | TGI (NCI-H226 lung): 30.6 µM | GI50 (NCI-H23 lung): 20.5 µM | TGI (NCI-H23 lung): 48.1 µM | GI50 (NCI-H460 lung): 16.4 µM | TGI (NCI-H460 lung): 46.7 µM | GI50 (NCI-H522 lung): 21.9 µM | TGI (NCI-H522 lung): 47.7 µM | GI50 (NCI/ADR-RES ovarian): 14.1 µM | TGI (NCI/ADR-RES ovarian): 40.2 µM | GI50 (OVCAR-3 ovarian): 21.5 µM | TGI (OVCAR-3 ovarian): 40.2 µM | GI50 (OVCAR-4 ovarian): 23.3 µM | TGI (OVCAR-4 ovarian): 47.4 µM | GI50 (OVCAR-5 ovarian): 24.3 µM | TGI (OVCAR-5 ovarian): 47 µM | GI50 (OVCAR-8 ovarian): 7.82 µM | TGI (OVCAR-8 ovarian): 47.2 µM | GI50 (PC-3 prostate): 14.7 µM | TGI (PC-3 prostate): 32.2 µM | GI50 (RPMI-8226 leukemia): 14.1 µM | TGI (RPMI-8226 leukemia): 39 µM | GI50 (RXF 393 renal): 10.2 µM | TGI (RXF 393 renal): 31.1 µM | GI50 (SF-268 CNS): 17.7 µM | TGI (SF-268 CNS): 42 µM | GI50 (SF-295 CNS): 16.8 µM | TGI (SF-295 CNS): 36 µM | GI50 (SF-539 CNS): 6.5 µM | TGI (SF-539 CNS): 21.8 µM | GI50 (SK-MEL-2 melanoma): 21.4 µM | TGI (SK-MEL-2 melanoma): 46.1 µM | GI50 (SK-MEL-28 melanoma): 30.3 µM | TGI (SK-MEL-28 melanoma): 78.2 µM | GI50 (SK-MEL-5 melanoma): 19.3 µM | TGI (SK-MEL-5 melanoma): 39 µM | GI50 (SK-OV-3 ovarian): 27.1 µM | TGI (SK-OV-3 ovarian): 73.3 µM | GI50 (SN12C renal): 18.6 µM | TGI (SN12C renal): 35.8 µM | GI50 (SNB-19 CNS): 25.7 µM | TGI (SNB-19 CNS): 72.5 µM | GI50 (SNB-75 CNS): 23.6 µM | TGI (SNB-75 CNS): 51.8 µM | GI50 (SR leukemia): 7.72 µM | TGI (SR leukemia): 27.5 µM | GI50 (SW-620 colon): 30.4 µM | TGI (SW-620 colon): > 100 µM | GI50 (T-47D breast): 31.2 µM | TGI (T-47D breast): 89.4 µM | GI50 (TK-10 renal): 19.4 µM | TGI (TK-10 renal): 39.9 µM | GI50 (U251 CNS): 17.6 µM | TGI (U251 CNS): 45.2 µM | GI50 (UACC-257 melanoma): 21.6 µM | TGI (UACC-257 melanoma): 44.7 µM | GI50 (UACC-62 melanoma): 18.9 µM | TGI (UACC-62 melanoma): 38.4 µM | GI50 (UO-31 renal): 20.6 µM | TGI (UO-31 renal): 38.1 µM
